Results on two compounds are retold here after ChEMBL document CHEMBL4118099, “Targeting Transcriptional Enhanced Associate Domains (TEADs)” (J Med Chem, 2018).

Assay [1] addresses T1, Transcriptional enhancer factor TEF-1 (Homo sapiens, UniProt P28347). Briefly: Inhibition of human His-tagged YAP (50 to 171 residues) interaction with human GST-tagged TEAD1 (194 to 411) expressed in Escherichia coli BL21(DE3) incubated for 30 mins measured by SPR assay.
Assay [2] deals with T1, Transcriptional enhancer factor TEF-1. Briefly: Binding affinity to human GST-tagged TEAD1 (194 to 411) expressed in Escherichia coli BL21(DE3) by SPR assay. (In general: In SPR one partner is held on a chip, and binding of the other changes the refractive index at the surface.)
For assay [3], the target named is Transcriptional enhancer factor TEF-3 (Homo sapiens, UniProt Q15561). Briefly: Binding affinity to human His-tagged TEAD4 YBD (217 to 434 residues) expressed in Escherichia coli BL21(DE3) after 30 mins by ITC assay.
Chain of Transcriptional enhancer factor TEF-3 (Q15561 whole entry, the tested form may be a part): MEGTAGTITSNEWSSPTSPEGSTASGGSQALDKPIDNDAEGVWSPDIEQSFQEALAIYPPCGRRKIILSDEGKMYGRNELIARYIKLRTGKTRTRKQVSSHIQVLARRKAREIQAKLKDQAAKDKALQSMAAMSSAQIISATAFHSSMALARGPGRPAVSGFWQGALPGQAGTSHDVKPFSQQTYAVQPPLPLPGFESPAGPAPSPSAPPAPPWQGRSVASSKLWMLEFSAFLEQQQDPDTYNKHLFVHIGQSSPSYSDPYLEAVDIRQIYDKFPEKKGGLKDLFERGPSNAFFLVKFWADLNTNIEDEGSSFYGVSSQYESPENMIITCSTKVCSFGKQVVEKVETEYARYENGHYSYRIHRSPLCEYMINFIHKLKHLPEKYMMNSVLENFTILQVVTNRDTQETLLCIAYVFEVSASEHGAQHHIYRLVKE

T1 sequence (P28347 whole entry, the tested form may be a part): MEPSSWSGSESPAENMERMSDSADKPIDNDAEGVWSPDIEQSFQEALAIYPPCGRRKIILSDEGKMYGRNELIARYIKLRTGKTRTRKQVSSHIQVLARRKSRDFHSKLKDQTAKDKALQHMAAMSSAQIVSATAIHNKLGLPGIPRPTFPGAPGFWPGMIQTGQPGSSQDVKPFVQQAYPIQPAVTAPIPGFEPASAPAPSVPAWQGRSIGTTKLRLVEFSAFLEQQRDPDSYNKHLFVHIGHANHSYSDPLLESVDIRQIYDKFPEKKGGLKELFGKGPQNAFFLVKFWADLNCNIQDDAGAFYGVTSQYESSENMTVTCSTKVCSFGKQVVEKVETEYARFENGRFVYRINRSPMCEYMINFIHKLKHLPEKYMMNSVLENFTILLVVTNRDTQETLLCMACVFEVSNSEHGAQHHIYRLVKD

As for `CCCC[C@@H]1NC(=O)[C@H](CCCCN)NC(=O)[C@H](CCCNC(=N)N)NC(=O)[C@H](CC(C)C)NC(=O)[C@@H](NC(=O)[C@H](Cc2cccc(Cl)c2)N[C@H](C)[C@@H]2CCCN2C(=O)[C@@H](NC(C)=O)C(C)C)CCSSC[C@@H](C(=O)N[C@@H](CCCCN)C(=O)N2CCC[C@H]2C(=O)N2CCC[C@H]2C(=O)N[C@@H](CCC(=O)O)C(N)=O)NC(=O)[C@@H](Cc2ccccc2)NC(=O)[C@H](CO)NC(=O)[C@H](C)NC(=O)[C@@H]2CCCN2C1=O`, the IC50 (as a rule, the concentration needed to halve the response being measured) in assay [1] was 25 nM. In addition, the Kd (usually the constant that tells how readily two partners part at equilibrium) in assay [2] is 15 nM.

`O=C(O)c1cccnc1Nc1cccc(C(F)(F)F)c1` [NIFLUMIC ACID]: the dissociation constant Kd in assay [3] turned out to be 28000 nM.
